# Source: US20140171357A1, “VANCOMYCIN DERIVATIVES” (Seachald Pharmaceuticals, Inc., priority 2011, published 2014)
# Columns and labels:
# [1] = test system: β-hemolytic streptococci (23); experiment: MIC broth microdilution, β-hemolytic streptococci; conditions: for MIC 50% / MIC 90%: β-hemolytic streptococci (23), MHB + lysed horse blood
# [2] = test system: vancomycin-susceptible E. faecalis (23); experiment: MIC broth microdilution, vancomycin-susceptible E. faecalis; conditions: for MIC 50% / MIC 90%: E. faecalis, vancomycin-susceptible (23)
# S. pneumoniae (22) = experiment: MIC broth microdilution, S. pneumoniae; conditions: for MIC 50% / MIC 90%: S. pneumoniae (22), MHB + lysed horse blood
# [3] = test system: Staphylococcus aureus (65 strains); experiment: MIC broth microdilution, S. aureus all isolates; conditions: for MIC 50% / MIC 90%: S. aureus (65), all resistance subsets
# [4] = test system: VanA vancomycin-resistant E. faecalis (11); experiment: MIC broth microdilution, VanA E. faecalis; conditions: for MIC 50% / MIC 90%: E. faecalis, VanA (11)
# VanC enterococci (22) = experiment: MIC broth microdilution, vanC-carrying enterococci; conditions: for MIC 50% / MIC 90%: VanC enterococci (22)
# [5] = test system: VanB vancomycin-resistant E. faecalis (12); experiment: MIC broth microdilution, VanB E. faecalis; conditions: for MIC 50% / MIC 90%: E. faecalis, VanB (12)
# [6] = test system: vancomycin-susceptible E. faecium (21); experiment: MIC broth microdilution, vancomycin-susceptible E. faecium; conditions: for MIC 50% / MIC 90%: E. faecium, vancomycin-susceptible (21)
# [7] = test system: VanA vancomycin-resistant E. faecium (10); experiment: MIC broth microdilution, VanA E. faecium; conditions: for MIC 50% / MIC 90%: E. faecium, VanA (10)
# [8] = test system: Staphylococcus epidermidis (43 strains); experiment: MIC broth microdilution, S. epidermidis; conditions: for MIC 50% / MIC 90%: S. epidermidis (43)
# [9] = test system: VanB vancomycin-resistant E. faecium (10); experiment: MIC broth microdilution, VanB E. faecium; conditions: for MIC 50% / MIC 90%: E. faecium, VanB (10)
# [10] = test system: methicillin-resistant S. aureus (MRSA, 22); experiment: MIC broth microdilution, MRSA
# [11] = test system: methicillin-susceptible S. aureus (MSSA, 22); experiment: MIC broth microdilution, MSSA; conditions: for MIC 50% / MIC 90%: MSSA (22)
# [12] = test system: vancomycin-intermediate S. aureus (VISA, 5); experiment: MIC broth microdilution, VISA
# S. aureus ATCC 25923 = experiment: Neutropenic murine thigh infection model; conditions: for AUCc-t (AUC difference between control and treated animals): 24 h time kill
# [13] = test system: vancomycin-resistant S. aureus (VRSA, 6); experiment: MIC broth microdilution, VRSA
# [14] = test system: heterogeneous VISA (hVISA, 10); experiment: MIC broth microdilution, hVISA
# [15] = 1 mg/kg single intraperitoneal dose
# [16] = 4 mg/kg single intraperitoneal dose
# [17] = 16 mg/kg single intraperitoneal dose
compound,measurement,setting,value
Teicoplanin [reference compound],MIC 50%,[1],0.12 µg/mL
same,MIC 90%,[1],0.25 µg/mL
same,MIC 50%,[2],0.5 µg/mL
same,MIC 90%,[2],0.5 µg/mL
same,MIC 50%,S. pneumoniae (22),0.12 µg/mL
same,MIC 90%,S. pneumoniae (22),0.12 µg/mL
same,MIC 50%,[3],0.5 µg/mL
same,MIC 90%,[3],8 µg/mL
same,MIC 50%,[4],64 µg/mL
same,MIC 90%,[4],>64 µg/mL
same,MIC 50%,VanC enterococci (22),1 µg/mL
same,MIC 90%,VanC enterococci (22),2 µg/mL
same,MIC 50%,[5],0.5 µg/mL
same,MIC 90%,[5],1 µg/mL
same,MIC 50%,[6],1 µg/mL
same,MIC 90%,[6],1 µg/mL
same,MIC 50%,[7],64 µg/mL
same,MIC 90%,[7],>64 µg/mL
same,MIC 50%,[8],2 µg/mL
same,MIC 90%,[8],4 µg/mL
same,MIC 50%,[9],1 µg/mL
same,MIC 90%,[9],1 µg/mL
same,MIC 50%,[10]; MRSA (22),0.5 µg/mL
same,MIC 90%,[10]; MRSA (22),0.5 µg/mL
same,MIC 50%,[11],0.5 µg/mL
same,MIC 90%,[11],1 µg/mL
CN[C@H](CC(C)C)C(=O)N[C@H]1C(=O)N[C@@H](CC(N)=O)C(=O)N[C@H]2C(=O)N[C@H]3C(=O)N[C@H](C(=O)N[C@H](C(=O)O)c4cc(O)cc(O)c4-c4cc3ccc4O)[C@H](O)c3ccc(c(Cl)c3)Oc3cc2cc(c3O[C@@H]2O[C@H](CO)[C@@H](O)[C@H](O)[C@H]2O[C@H]2C[C@](C)(N)[C@H](O)[C@H](C)O2)Oc2ccc(cc2Cl)[C@H]1O [Vancomycin],MIC50,[2]; Enterococcus faecalis,1 µg/mL
same,MIC90,[2]; Enterococcus faecalis,2 µg/mL
same,MIC50,[3]; Staphylococcus aureus,1 µg/mL
same,MIC90,[3]; Staphylococcus aureus,4 µg/mL
same,MIC50,[4]; Enterococcus faecalis,> 64 µg/mL
same,MIC90,[4]; Enterococcus faecalis,> 64 µg/mL
same,MIC50,VanC enterococci (22),4 µg/mL
same,MIC90,VanC enterococci (22),4 µg/mL
same,MIC50,[5]; Enterococcus faecalis,> 64 µg/mL
same,MIC90,[5]; Enterococcus faecalis,> 64 µg/mL
same,MIC50,[6]; Enterococcus faecium,0.5 µg/mL
same,MIC90,[6]; Enterococcus faecium,1 µg/mL
same,MIC50,[7]; Enterococcus faecium,> 64 µg/mL
same,MIC90,[7]; Enterococcus faecium,> 64 µg/mL
same,MIC50,[8]; Staphylococcus epidermidis,1 µg/mL
same,MIC90,[8]; Staphylococcus epidermidis,2 µg/mL
same,MIC50,[9]; Enterococcus faecium,64 µg/mL
same,MIC90,[9]; Enterococcus faecium,> 64 µg/mL
same,MIC50,"[10]; Staphylococcus aureus, MRSA",0.5 µg/mL
same,MIC90,"[10]; Staphylococcus aureus, MRSA",1 µg/mL
same,MIC50,"[11]; Staphylococcus aureus, MSSA",0.5 µg/mL
same,MIC90,"[11]; Staphylococcus aureus, MSSA",1 µg/mL
CCCCCCCCCCNCCNC1(C)CC(OC2C(Oc3c4cc5cc3Oc3ccc(cc3Cl)C(O)C3NC(=O)C(NC(=O)C5NC(=O)C(CC(N)=O)NC(=O)C(NC(=O)C(CC(C)C)NC)C(O)c5ccc(c(Cl)c5)O4)c4ccc(O)c(c4)-c4c(cc(O)c(CNCCOCCOCC[N+](C)(C)C)c4O)C(C(=O)O)NC3=O)OC(CO)C(O)C2O)OC(C)C1O (centres unmarked) [Compound 1],fold more potent than teicoplanin and daptomycin,[1]; β-hemolytic streptococci,two- to four
same,fold more potent than vancomycin,[1]; β-hemolytic streptococci,four- to eight
same,MIC 50%,[1],0.03 µg/mL
same,MIC 90%,[1],0.06 µg/mL
same,MIC 50%,[12],0.12 µg/mL
same,Max Kill (maximum decrease from initial infection level),S. aureus ATCC 25923; [15],0.15 Log10 CFU/thigh
same,AUCc-t (AUC difference between control and treated animals),S. aureus ATCC 25923; [15],28 (Log10 CFU/thigh)/hr
same,Max Kill (maximum decrease from initial infection level),S. aureus ATCC 25923; [16],−1.14 Log10 CFU/thigh
same,AUCc-t (AUC difference between control and treated animals),S. aureus ATCC 25923; [16],32.7 (Log10 CFU/thigh)/hr
same,Max Kill (maximum decrease from initial infection level),S. aureus ATCC 25923; [17],−1.07 Log10 CFU/thigh
same,AUCc-t (AUC difference between control and treated animals),S. aureus ATCC 25923; [17],60.4 (Log10 CFU/thigh)/hr
same,in vivo efficacy against S. aureus (in words),S. aureus ATCC 25923; neutropenic soft tissue infection model,bactericidal characteristics and prolonged in vivo activity
same,MIC 50%,[2],0.06 µg/mL
same,MIC 90%,[2],0.12 µg/mL
same,MIC 50%,[13],2 µg/mL
same,fold more potent than linezolid,S. pneumoniae (22); S. pneumoniae,32 fold
same,MIC 50%,S. pneumoniae (22),0.015 µg/mL
same,MIC 90%,S. pneumoniae (22),0.03 µg/mL
same,MIC 50%,[3],0.06 µg/mL
same,MIC 90%,[3],0.12 µg/mL
same,MIC 50%,[4],8 µg/mL
same,MIC 90%,[4],8 µg/mL
same,MIC 50%,VanC enterococci (22),0.06 µg/mL
same,MIC 90%,VanC enterococci (22),0.25 µg/mL
same,MIC 50%,[5],0.12 µg/mL
same,MIC 90%,[5],0.12 µg/mL
same,MIC 50%,[14],0.06 µg/mL
same,MIC 90%,[14],0.06 µg/mL
same,MIC 50%,[6],0.03 µg/mL
same,MIC 90%,[6],0.03 µg/mL
same,MIC 50%,[7],4 µg/mL
same,MIC 90%,[7],8 µg/mL
same,MIC 50%,[8],0.03 µg/mL
same,MIC 90%,[8],0.06 µg/mL
same,MIC 50%,[9],0.015 µg/mL
same,MIC 90%,[9],0.03 µg/mL
same,MIC 50%,[11],0.06 µg/mL
same,MIC 90%,[11],0.06 µg/mL
